Source: ChEMBL document CHEMBL1909046, “DrugMatrix in vitro pharmacology data”

Legend:
[1] = target: T1, Alpha-1B adrenergic receptor (Rattus norvegicus, UniProt P15823); assay: DRUGMATRIX: Alpha-1B adrenergic receptor radioligand binding (ligand: prazosin); format: cell membranes, Wistar, Liver, Membrane; conditions: Not Active = under 50% inhibition at 10 µM
T1 sequence (P15823 whole entry): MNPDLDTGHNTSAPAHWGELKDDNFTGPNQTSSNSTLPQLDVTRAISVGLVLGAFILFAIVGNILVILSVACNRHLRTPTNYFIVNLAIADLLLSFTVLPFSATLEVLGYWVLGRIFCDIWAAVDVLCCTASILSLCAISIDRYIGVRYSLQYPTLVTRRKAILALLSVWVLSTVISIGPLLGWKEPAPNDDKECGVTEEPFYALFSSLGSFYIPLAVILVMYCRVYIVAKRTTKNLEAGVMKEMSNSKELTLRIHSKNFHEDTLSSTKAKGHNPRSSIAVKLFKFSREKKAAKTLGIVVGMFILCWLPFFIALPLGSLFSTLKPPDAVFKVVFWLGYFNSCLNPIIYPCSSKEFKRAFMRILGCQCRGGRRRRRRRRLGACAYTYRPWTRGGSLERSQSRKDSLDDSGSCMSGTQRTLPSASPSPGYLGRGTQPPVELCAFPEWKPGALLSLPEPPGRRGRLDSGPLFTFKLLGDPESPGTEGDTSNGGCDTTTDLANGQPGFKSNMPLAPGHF

[2] = target: T2, Alpha-1D adrenergic receptor (Homo sapiens, UniProt P25100); format: cell membranes, HEK293, Membrane; conditions: hek293; also: in other assays of this panel Not Active means under 50% inhibition at 10 µM
T2 sequence (P25100 whole entry): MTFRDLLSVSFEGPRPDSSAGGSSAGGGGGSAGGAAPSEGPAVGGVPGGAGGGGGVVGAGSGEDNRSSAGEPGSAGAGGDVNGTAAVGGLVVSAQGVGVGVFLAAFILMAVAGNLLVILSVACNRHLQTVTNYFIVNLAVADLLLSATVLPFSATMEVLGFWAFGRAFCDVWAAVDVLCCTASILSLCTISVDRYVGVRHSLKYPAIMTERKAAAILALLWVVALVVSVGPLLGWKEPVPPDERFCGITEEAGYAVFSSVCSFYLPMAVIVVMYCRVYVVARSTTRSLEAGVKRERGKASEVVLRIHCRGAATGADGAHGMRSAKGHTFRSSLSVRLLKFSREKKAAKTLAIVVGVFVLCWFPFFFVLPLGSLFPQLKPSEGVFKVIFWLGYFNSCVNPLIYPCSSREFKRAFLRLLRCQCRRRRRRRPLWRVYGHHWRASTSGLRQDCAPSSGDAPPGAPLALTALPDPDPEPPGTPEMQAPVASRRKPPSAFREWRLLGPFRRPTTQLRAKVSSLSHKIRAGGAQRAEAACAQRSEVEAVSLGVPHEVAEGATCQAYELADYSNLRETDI

Neutrophil elastase = target: T3, Neutrophil elastase (Homo sapiens, UniProt P08246); format: tissue-based;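 also: inhibition of neutrophil elastase enzyme activity, measured with a p-nitroanilide-linked peptide substrate; in other assays of this panel Not Active means under 50% inhibition at 10 µM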
T3 sequence (P08246 whole entry): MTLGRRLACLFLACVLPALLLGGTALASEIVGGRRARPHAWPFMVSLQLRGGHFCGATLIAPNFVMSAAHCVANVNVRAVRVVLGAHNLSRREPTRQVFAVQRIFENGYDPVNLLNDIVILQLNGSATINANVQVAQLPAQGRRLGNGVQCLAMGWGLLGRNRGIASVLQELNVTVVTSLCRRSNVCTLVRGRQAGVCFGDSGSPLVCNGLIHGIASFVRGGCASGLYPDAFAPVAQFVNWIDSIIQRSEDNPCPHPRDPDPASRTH

B2 bradykinin receptor = target: T4, B2 bradykinin receptor (Homo sapiens, UniProt P30411); format: cell membranes, Membrane; conditions: chem-1; also: in other assays of this panel Not Active means under 50% inhibition at 10 µM
T4 sequence (P30411 whole entry): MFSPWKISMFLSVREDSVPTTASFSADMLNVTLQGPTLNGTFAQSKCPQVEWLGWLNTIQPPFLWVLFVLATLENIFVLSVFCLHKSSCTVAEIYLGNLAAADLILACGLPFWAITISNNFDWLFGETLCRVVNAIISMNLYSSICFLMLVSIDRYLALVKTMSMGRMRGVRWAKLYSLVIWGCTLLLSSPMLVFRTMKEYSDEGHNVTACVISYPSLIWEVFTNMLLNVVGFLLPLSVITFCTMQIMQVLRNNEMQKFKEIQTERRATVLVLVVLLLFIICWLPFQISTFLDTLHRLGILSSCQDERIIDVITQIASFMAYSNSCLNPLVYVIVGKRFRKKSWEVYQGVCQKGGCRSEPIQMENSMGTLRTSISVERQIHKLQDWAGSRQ

[3] = target: T5, Alpha-2C adrenergic receptor (Homo sapiens, UniProt P18825); assay: DRUGMATRIX: Adrenergic Alpha-2C radioligand binding (ligand: [3H] MK-912); format: cell membranes, Sf9, Membrane; conditions: sf9
T5 sequence (P18825 whole entry): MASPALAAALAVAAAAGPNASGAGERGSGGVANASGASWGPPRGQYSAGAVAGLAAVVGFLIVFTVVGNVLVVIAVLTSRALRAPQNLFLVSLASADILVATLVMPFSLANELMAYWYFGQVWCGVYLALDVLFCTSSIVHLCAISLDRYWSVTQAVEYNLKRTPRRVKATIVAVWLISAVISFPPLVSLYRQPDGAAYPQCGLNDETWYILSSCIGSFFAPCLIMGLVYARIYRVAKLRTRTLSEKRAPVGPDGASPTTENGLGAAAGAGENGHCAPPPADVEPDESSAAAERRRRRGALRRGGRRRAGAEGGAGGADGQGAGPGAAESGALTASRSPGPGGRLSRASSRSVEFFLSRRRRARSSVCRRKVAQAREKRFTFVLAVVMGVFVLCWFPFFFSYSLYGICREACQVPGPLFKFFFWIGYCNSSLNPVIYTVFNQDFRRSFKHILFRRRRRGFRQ

Substance-P receptor = Substance-P receptor (Homo sapiens, UniProt P25103); format: cell membranes, Membrane; conditions: cho; also: in other assays of this panel Not Active means under 50% inhibition at 10 µM
Sequence of Substance-P receptor (P25103 whole entry): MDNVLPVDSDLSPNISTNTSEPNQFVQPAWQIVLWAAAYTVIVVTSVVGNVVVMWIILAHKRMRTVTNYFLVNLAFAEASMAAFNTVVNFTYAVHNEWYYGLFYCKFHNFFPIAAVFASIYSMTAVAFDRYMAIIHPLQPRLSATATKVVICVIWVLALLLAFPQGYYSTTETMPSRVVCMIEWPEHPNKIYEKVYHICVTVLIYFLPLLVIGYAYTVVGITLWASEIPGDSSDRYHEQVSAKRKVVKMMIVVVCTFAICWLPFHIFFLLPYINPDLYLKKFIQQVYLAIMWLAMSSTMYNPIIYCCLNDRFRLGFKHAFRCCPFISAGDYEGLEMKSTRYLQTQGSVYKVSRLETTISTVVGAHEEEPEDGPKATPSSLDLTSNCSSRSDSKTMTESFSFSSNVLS

[4] = DRUGMATRIX: Atrial Natriuretic Factor (ANF) radioligand binding (ligand: [125I] ANF (rat)); format: cell membranes, Cavia porcellus, Dunkin-Hartley, Adrenal gland, Membrane; conditions: Not Active = under 50% inhibition at 10 µM

CO[C@H]1[C@@H](O)[C@H](N)[C@@H](O[C@H]2O[C@H]([C@H](C)N)CC[C@H]2N)[C@H](O)[C@@H]1N(C)C(=O)CN [ASTROMICIN]
Not Active: IC50 [1] | IC50 [2] | IC50 (Neutrophil elastase) | IC50 (B2 bradykinin receptor) | IC50 [3] | IC50 (Substance-P receptor) | IC50 [4] | Ki [4]

[N-]=[N+]=CC(=O)OC[C@H](N)C(=O)O [AZASERINE]
Not Active: IC50 [1] | IC50 [2] | IC50 (Neutrophil elastase) | IC50 (B2 bradykinin receptor) | IC50 [3] | IC50 (Substance-P receptor) | IC50 [4] | Ki [4]

CC[C@H]1OC(=O)[C@H](C)[C@@H](O[C@H]2C[C@@](C)(OC)[C@@H](O)[C@H](C)O2)[C@H](C)[C@@H](O[C@@H]2O[C@H](C)C[C@H](N(C)C)[C@H]2O)[C@](C)(O)C[C@@H](C)CN(C)[C@H](C)[C@@H](O)[C@]1(C)O [AZITHROMYCIN]
Not Active: IC50 [1] | IC50 [2] | IC50 (Neutrophil elastase) | IC50 (B2 bradykinin receptor) | IC50 [3] | IC50 (Substance-P receptor) | IC50 [4] | Ki [4]

CC(C)(C)c1ccc(S(=O)(=O)/C=C/C#N)cc1 [BAY-11-7085]
Not Active: IC50 [1] | IC50 [2] | IC50 (Neutrophil elastase) | IC50 (B2 bradykinin receptor) | IC50 [3] | IC50 (Substance-P receptor) | IC50 [4] | Ki [4]

CCc1oc2ccccc2c1C(=O)c1cc(Br)c(O)c(Br)c1 [BENZBROMARONE]
Not Active: IC50 [1] | IC50 [2] | IC50 (Neutrophil elastase) | IC50 (B2 bradykinin receptor) | IC50 [3] | IC50 (Substance-P receptor) | IC50 [4] | Ki [4]

O=c1cc(-c2ccccc2)oc2ccc3ccccc3c12 [BETA-NAPHTHOFLAVONE]
Not Active: IC50 [1] | IC50 [2] | IC50 (Neutrophil elastase) | IC50 (B2 bradykinin receptor) | IC50 [3] | IC50 (Substance-P receptor) | IC50 [4] | Ki [4]

CS(=O)(=O)OCCCCOS(C)(=O)=O [BUSULFAN]
Not Active: IC50 [1] | IC50 [2] | IC50 (Neutrophil elastase) | IC50 (B2 bradykinin receptor) | IC50 [3] | IC50 (Substance-P receptor) | IC50 [4] | Ki [4]

O=C(/C=C/c1ccc(O)c(O)c1)OCCc1ccccc1 [CAFFEIC ACID PHENETHYL ESTER]
Not Active: IC50 [1] | IC50 [2] | IC50 (Neutrophil elastase) | IC50 (B2 bradykinin receptor) | IC50 [3] | IC50 (Substance-P receptor) | IC50 [4] | Ki [4]

COc1cc(CNC(=O)CCCC/C=C/C(C)C)ccc1O [CAPSAICIN]
Not Active: IC50 [1] | IC50 [2] | IC50 (Neutrophil elastase) | IC50 (B2 bradykinin receptor) | IC50 [3] | IC50 (Substance-P receptor) | IC50 [4] | Ki [4]

NC(=O)N1c2ccccc2C=Cc2ccccc21 [CARBAMAZEPINE]
Not Active: IC50 [1] | IC50 [2] | IC50 (Neutrophil elastase) | IC50 (B2 bradykinin receptor) | IC50 [3] | IC50 (Substance-P receptor) | IC50 [4] | Ki [4]

CCOC(=O)n1ccn(C)c1=S [CARBIMAZOLE]
Not Active: IC50 [1] | IC50 [2] | IC50 (Neutrophil elastase) | IC50 (B2 bradykinin receptor) | IC50 [3] | IC50 (Substance-P receptor) | IC50 [4] | Ki [4]

Oc1ccccc1O [CATECHOL]
Not Active: IC50 [1] | IC50 [2] | IC50 (Neutrophil elastase) | IC50 (B2 bradykinin receptor) | IC50 [3] | IC50 (Substance-P receptor) | IC50 [4] | Ki [4]

CO[C@@]1(NC(=O)CSCC#N)C(=O)N2C(C(=O)O)=C(CSc3nnnn3C)CS[C@@H]21 [CEFMETAZOLE]
Not Active: IC50 [1] | IC50 [2] | IC50 (Neutrophil elastase) | IC50 (B2 bradykinin receptor) | IC50 [3] | IC50 (Substance-P receptor) | IC50 [4] | Ki [4]

CN(C(=O)CCCOc1ccc2[nH]c(=O)ccc2c1)C1CCCCC1 [CILOSTAMIDE]
Not Active: IC50 [1] | IC50 [2] | IC50 (Neutrophil elastase) | IC50 (B2 bradykinin receptor) | IC50 [3] | IC50 (Substance-P receptor) | IC50 [4] | Ki [4]

CC(C)(Oc1ccc(C2CC2(Cl)Cl)cc1)C(=O)O (stereo not given) [CIPROFIBRATE]
Not Active: IC50 [1] | IC50 [2] | IC50 (Neutrophil elastase) | IC50 (B2 bradykinin receptor) | IC50 [3] | IC50 (Substance-P receptor) | IC50 [4] | Ki [4]

Nc1nc(Cl)nc2c1ncn2[C@H]1C[C@H](O)[C@@H](CO)O1 [CLADRIBINE]
Not Active: IC50 [1] | IC50 [2] | IC50 (Neutrophil elastase) | IC50 (B2 bradykinin receptor) | IC50 [3] | IC50 (Substance-P receptor) | IC50 [4] | Ki [4]

CC[C@H]1OC(=O)[C@H](C)[C@@H](O[C@H]2C[C@@](C)(OC)[C@@H](O)[C@H](C)O2)[C@H](C)[C@@H](O[C@@H]2O[C@H](C)C[C@H](N(C)C)[C@H]2O)[C@](C)(OC)C[C@@H](C)C(=O)[C@H](C)[C@@H](O)[C@]1(C)O [CLARITHROMYCIN]
Not Active: IC50 [1] | IC50 [2] | IC50 (Neutrophil elastase) | IC50 (B2 bradykinin receptor) | IC50 [3] | IC50 (Substance-P receptor) | IC50 [4] | Ki [4]

CCC[C@@H]1C[C@@H](C(=O)N[C@@H]([C@H]2O[C@H](SC)[C@H](O)[C@@H](O)[C@H]2O)[C@H](C)Cl)N(C)C1 [CLINDAMYCIN]
Not Active: IC50 [1] | IC50 [2] | IC50 (Neutrophil elastase) | IC50 (B2 bradykinin receptor) | IC50 [3] | IC50 (Substance-P receptor) | IC50 [4] | Ki [4]

O=C(O)c1cc(=O)c2c(OCC(O)COc3cccc4oc(C(=O)O)cc(=O)c34)cccc2o1 [CROMOLYN]
Not Active: IC50 [1] | IC50 [2] | IC50 (Neutrophil elastase) | IC50 (B2 bradykinin receptor) | IC50 [3] | IC50 (Substance-P receptor) | IC50 [4] | Ki [4]

O=P1(N(CCCl)CCCl)NCCCO1 (stereo not given) [CYCLOPHOSPHAMIDE ANHYDROUS]
Not Active: IC50 [1] | IC50 [2] | IC50 (Neutrophil elastase) | IC50 (B2 bradykinin receptor) | IC50 [3] | IC50 (Substance-P receptor) | IC50 [4] | Ki [4]
